For series [1], the system named is VX-950 metabolism in human hepatic microsomes. In kind it is in vitro ADME. The conditions noted are these: 0.25 μM VX-950, 0.25 mg microsomal protein/mL, 2 minutes.

Like-named read-outs stand apart in the source and are kept apart here.

For `CCC[C@H](NC(=O)[C@@H]1[C@H]2CCC[C@H]2CN1C(=O)[C@@H](NC(=O)[C@@H](NC(=O)c1cnccn1)C1CCCCC1)C(C)(C)C)C(=O)C(=O)NC1CC1` [VX-950], the “metabolized in human liver microsomes” value (1 h, 2 μM) was 73%; the “metabolized in human liver microsomes” value (1 h, 20 μM) is listed as 7%; the “metabolized in human liver microsomes” value (2 h, 2 μM) is on record as 86%; the “metabolized in human liver microsomes” value (2 h, 20 μM) came out at 21%.
As for `CC(C)c1nc(CN(C)C(=O)N[C@H](C(=O)N[C@@H](Cc2ccccc2)C[C@H](O)[C@H](Cc2ccccc2)NC(=O)OCc2cncs2)C(C)C)cs1` [ritonavir], the “effect of ritonavir on VX-950 metabolism” value in series [1] (ritonavir 10 to 100 μM) is on record as “increase in VX-950 metabolism”; in series [1] (ritonavir up to 3 μM), “inhibition of VX-950 metabolism”.
